Experimental data as given in US12637432B2, “Inhibitors of ACK1/TNK2 tyrosine kinase” (H. LEE MOFFITT CANCER CENTER AND RESEARCH INSTITUTE, INC., priority 2020, dated 2026).
One block for each compound: values may come before it.

Key:
ACK1 [1] = molecular target: T1, ACK1 (Homo sapiens, UniProt Q07912); test: Reaction Biology 33P Hotspot assay; format: biochemical
T1 construct: purchased Reaction Biology

MDA-MB-231 = test: Cell viability (MDA-MB-231); format: cell-based; details: Homo sapiens
UKE1 = test: Cell viability (UKE1); format: cell-based
AR Tyr267 = details: cited from earlier work
AKT Tyr176 = details: pancreatic cancer cells; cited from earlier work
[2] = test system: castration and radioresistant prostate xenograft tumor; details: in vivo; cited from earlier work
[3] = attributed to oxidation of dithiolane ring and NMe2; cited from earlier work
ACK1 [4] = molecular target: T1, ACK1; test: ACK1 IC50 (Table 1, assay not specified); format: biochemical

T1 sequence (Q07912 whole entry): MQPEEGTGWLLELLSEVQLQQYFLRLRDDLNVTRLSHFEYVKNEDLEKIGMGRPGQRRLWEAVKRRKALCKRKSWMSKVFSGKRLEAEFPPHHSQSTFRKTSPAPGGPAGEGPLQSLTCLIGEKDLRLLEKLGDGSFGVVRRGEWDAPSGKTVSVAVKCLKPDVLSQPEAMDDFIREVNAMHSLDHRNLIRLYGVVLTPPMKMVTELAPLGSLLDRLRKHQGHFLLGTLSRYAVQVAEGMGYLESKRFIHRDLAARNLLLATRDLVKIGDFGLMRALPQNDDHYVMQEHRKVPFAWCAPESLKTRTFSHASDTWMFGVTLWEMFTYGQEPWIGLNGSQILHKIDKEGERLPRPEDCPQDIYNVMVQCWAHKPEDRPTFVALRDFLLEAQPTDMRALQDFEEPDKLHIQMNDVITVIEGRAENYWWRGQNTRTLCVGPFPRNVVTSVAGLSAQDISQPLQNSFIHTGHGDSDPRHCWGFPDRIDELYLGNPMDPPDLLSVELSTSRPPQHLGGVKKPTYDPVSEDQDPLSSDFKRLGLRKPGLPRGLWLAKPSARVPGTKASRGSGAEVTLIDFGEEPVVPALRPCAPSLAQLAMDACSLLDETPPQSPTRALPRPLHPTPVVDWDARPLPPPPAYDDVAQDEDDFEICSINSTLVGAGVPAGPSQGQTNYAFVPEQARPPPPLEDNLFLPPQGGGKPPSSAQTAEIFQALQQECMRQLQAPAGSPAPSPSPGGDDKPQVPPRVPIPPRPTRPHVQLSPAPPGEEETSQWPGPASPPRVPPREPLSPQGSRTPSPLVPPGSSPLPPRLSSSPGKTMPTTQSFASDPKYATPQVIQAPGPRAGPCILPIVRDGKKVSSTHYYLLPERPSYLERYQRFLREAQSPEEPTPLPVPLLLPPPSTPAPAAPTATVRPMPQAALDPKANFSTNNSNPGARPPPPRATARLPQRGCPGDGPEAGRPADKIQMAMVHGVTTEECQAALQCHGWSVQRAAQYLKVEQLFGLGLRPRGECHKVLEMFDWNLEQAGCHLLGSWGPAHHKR

- IC50 (ACK1 [1]): 29.1 nM
- EC50 (MDA-MB-231): 7.72 µM
Compound: Cn1cc(-c2ccc(Nc3ncc(Cl)c(NCC4CCOCC4)n3)cc2)cn1 [5-chloro-N^2-(4-(1-methyl-1H-pyrazol-4-yl)phenyl)-N^4-((tetrahydro-2H-pyran-4-yl)methyl)pyrimidine-2,4-diamine]
- EC50 (UKE1): 6.7 µM

Compound: c1ccc(-c2oc3ncnc(NC[C@@H]4CCCO4)c3c2-c2ccccc2)cc1 [Compound 1b]
- AR Tyr267 phosphorylation (AR Tyr267): inhibits
- ACK1 dependent AKT Tyr176 phosphorylation (AKT Tyr176): inhibits
- castration and radioresistant prostate xenograft tumor growth [2]: inhibits

Compound: CN(C)CCOc1ccc(-c2oc3ncnc(NCC4SCCS4)c3c2-c2ccccc2)cc1 [Compound 1c]
- pharmacokinetic properties [3]: poor pharmacokinetic properties

- IC50 (ACK1 [4]): 0.0787 µM
Compound: Fc1cc(Nc2ncc(Cl)c(NC[C@H]3CCCO3)n2)ccc1-c1cnn(C2CCOCC2)c1 [(R)-5-chloro-N^2-(3-fluoro-4-(1-(tetrahydro-2H-pyran-4-yl)-1H-pyrazol-4-yl)phenyl)-N^4-((tetrahydrofuran-2-yl)methyl)pyrimidine-2,4-diamine]
